In ChEMBL document CHEMBL3885861, “Open TG-GATES”:

Organism: Rattus norvegicus
Test: Open TG-GATES - Regimen: Daily Repeat
Format: toxicity, organism-based, Sprague-Dawley
Parameters: regimen Daily Repeat, gender Male, age 6 weeks
Conditions: in vivo, po, 100 mg/kg, route gavage, dose level Low; for APTT / Bas / Eos / Fbg / Hb / Ht / Lym / MCH / MCHC / MCV / Mono / Neu / PT / Plat / RBC / Ret / WBC: tissue Blood; for KIDNEY_L / KIDNEY_R / KIDNEY_TOTAL: tissue Kidney; for LIVER: tissue Liver; for A/G / ALP / ALT / AST / BUN / CRE / Ca / Cl / DBIL / GLC / IP / K / LDH / Na / PL / RALB / TBIL / TC / TG / TP / gamma-GTP: tissue Plasma

Compound: Cc1nnc2n1-c1ccc(Cl)cc1C(c1ccccc1Cl)=NC2 [TRIAZOLAM]
- TERMINAL_BW (72 h, time 3 day): 218.3 g
- APTT (72 h, time 3 day): 21.4 s
- Bas (72 h, time 3 day): 0%
- Eos (72 h, time 3 day): 1.2%
- Fbg (72 h, time 3 day): 274.2 mg/dL
- Hb (72 h, time 3 day): 13.8 g/dL
- Ht (72 h, time 3 day): 41.1%
- Lym (72 h, time 3 day): 74.2%
- MCH (72 h, time 3 day): 21.5 pg
- MCHC (72 h, time 3 day): 33.7%
- MCV (72 h, time 3 day): 63.9 fL
- Mono (72 h, time 3 day): 3.8%
- Neu (72 h, time 3 day): 20%
- PT (72 h, time 3 day): 13.2 s
- Plat (72 h, time 3 day): 117.9 x10_4/uL
- RBC (72 h, time 3 day): 643 x10_4/ul
- Ret (72 h, time 3 day): 6.6%
- WBC (72 h, time 3 day): 108.6 x10_2/uL
- KIDNEY_L (72 h, time 3 day): 1 g
- KIDNEY_R (72 h, time 3 day): 1 g
- KIDNEY_TOTAL (72 h, time 3 day): 1.9 g
- LIVER (72 h, time 3 day): 10.3 g
- A/G (72 h, time 3 day): 0.9
- ALP (72 h, time 3 day): 1550.6 IU/L
- ALT (72 h, time 3 day): 53.8 IU/L
- AST (72 h, time 3 day): 79 IU/L
- BUN (72 h, time 3 day): 14.2 mg/dL
- CRE (72 h, time 3 day): 0.2 mg/dL
- Ca (72 h, time 3 day): 11.1 mg/dL
- Cl (72 h, time 3 day): 104.6 meq/L
- DBIL (72 h, time 3 day): 0.012 mg/dL
- GLC (72 h, time 3 day): 166.2 mg/dL
- IP (72 h, time 3 day): 8.1 mg/dL
- K (72 h, time 3 day): 4 meq/L
- LDH (72 h, time 3 day): 88.2 IU/L
- Na (72 h, time 3 day): 141 meq/L
- PL (72 h, time 3 day): 142.4 mg/dL
- RALB (72 h, time 3 day): 2.6 g/dL
- TBIL (72 h, time 3 day): 0.054 mg/dL
- TC (72 h, time 3 day): 75.4 mg/dL
- TG (72 h, time 3 day): 76 mg/dL
- TP (72 h, time 3 day): 5.5 g/dL
- gamma-GTP (72 h, time 3 day): 1 IU/L
- TERMINAL_BW ([…], time 7 day): 251.1 g
- TERMINAL_BW ([…], time 14 day): 311.7 g
- TERMINAL_BW ([…], time 28 day): 393.2 g
- APTT ([…], time 7 day): 20.5 s
- Bas ([…], time 7 day): 0%
- Eos ([…], time 7 day): 0.8%
- Fbg ([…], time 7 day): 251.8 mg/dL
- Hb ([…], time 7 day): 13.9 g/dL
- Ht ([…], time 7 day): 41.6%
- Lym ([…], time 7 day): 74.8%
- MCH ([…], time 7 day): 20.9 pg
- MCHC ([…], time 7 day): 33.5%
- MCV ([…], time 7 day): 62.4 fL
- Mono ([…], time 7 day): 2.2%
- Neu ([…], time 7 day): 21.4%
- PT ([…], time 7 day): 13 s
- Plat ([…], time 7 day): 116.7 x10_4/uL
- RBC ([…], time 7 day): 667 x10_4/ul
- Ret ([…], time 7 day): 6.1%
- WBC ([…], time 7 day): 109.2 x10_2/uL
- APTT ([…], time 14 day): 17.9 s
- Bas ([…], time 14 day): 0.8%
- Eos ([…], time 14 day): 1%
- Fbg ([…], time 14 day): 253.2 mg/dL
- Hb ([…], time 14 day): 14.4 g/dL
- Ht ([…], time 14 day): 43.7%
- Lym ([…], time 14 day): 77.2%
- MCH ([…], time 14 day): 20.2 pg
- MCHC ([…], time 14 day): 32.9%
- MCV ([…], time 14 day): 61.6 fL
- Mono ([…], time 14 day): 2.4%
- Neu ([…], time 14 day): 18.4%
- PT ([…], time 14 day): 13.4 s
- Plat ([…], time 14 day): 117.2 x10_4/uL
- RBC ([…], time 14 day): 710.8 x10_4/ul
- Ret ([…], time 14 day): 4.8%
- WBC ([…], time 14 day): 98 x10_2/uL
- APTT ([…], time 28 day): 17.1 s
- Bas ([…], time 28 day): 0.2%
- Eos ([…], time 28 day): 1.2%
- Fbg ([…], time 28 day): 277.4 mg/dL
- Hb ([…], time 28 day): 15.2 g/dL
- Ht ([…], time 28 day): 45.2%
- Lym ([…], time 28 day): 78.4%
- MCH ([…], time 28 day): 19 pg
- MCHC ([…], time 28 day): 33.6%
- MCV ([…], time 28 day): 56.6 fL
- Mono ([…], time 28 day): 1.6%
- Neu ([…], time 28 day): 17.6%
- PT ([…], time 28 day): 13.2 s
- Plat ([…], time 28 day): 110.7 x10_4/uL
- RBC ([…], time 28 day): 798 x10_4/ul
- Ret ([…], time 28 day): 2.4%
- WBC ([…], time 28 day): 93.4 x10_2/uL
- KIDNEY_L ([…], time 7 day): 1.1 g
- KIDNEY_R ([…], time 7 day): 1 g
- KIDNEY_TOTAL ([…], time 7 day): 2.1 g
- KIDNEY_L ([…], time 14 day): 1.2 g
- KIDNEY_R ([…], time 14 day): 1.2 g
- KIDNEY_TOTAL ([…], time 14 day): 2.4 g
- KIDNEY_L ([…], time 28 day): 1.4 g
- KIDNEY_R ([…], time 28 day): 1.4 g
- KIDNEY_TOTAL ([…], time 28 day): 2.8 g
- LIVER ([…], time 7 day): 11.9 g
- LIVER ([…], time 14 day): 13.6 g
- LIVER ([…], time 28 day): 15.5 g
- A/G ([…], time 7 day): 0.9
- ALP ([…], time 7 day): 1700.8 IU/L
- ALT ([…], time 7 day): 48.8 IU/L
- AST ([…], time 7 day): 75.6 IU/L
- BUN ([…], time 7 day): 16.6 mg/dL
- CRE ([…], time 7 day): 0.2 mg/dL
- Ca ([…], time 7 day): 10.9 mg/dL
- Cl ([…], time 7 day): 105.2 meq/L
- DBIL ([…], time 7 day): 0.012 mg/dL
- GLC ([…], time 7 day): 192.4 mg/dL
- IP ([…], time 7 day): 6.9 mg/dL
- K ([…], time 7 day): 4.2 meq/L
- LDH ([…], time 7 day): 77.4 IU/L
- Na ([…], time 7 day): 141.4 meq/L
- PL ([…], time 7 day): 157.4 mg/dL
- RALB ([…], time 7 day): 2.6 g/dL
- TBIL ([…], time 7 day): 0.036 mg/dL
- TC ([…], time 7 day): 78.6 mg/dL
- TG ([…], time 7 day): 104.8 mg/dL
- TP ([…], time 7 day): 5.5 g/dL
- gamma-GTP ([…], time 7 day): 1.4 IU/L
- A/G ([…], time 14 day): 0.8
- ALP ([…], time 14 day): 1617 IU/L
- ALT ([…], time 14 day): 40.2 IU/L
- AST ([…], time 14 day): 72.2 IU/L
- BUN ([…], time 14 day): 16.2 mg/dL
- CRE ([…], time 14 day): 0.2 mg/dL
- Ca ([…], time 14 day): 10.8 mg/dL
- Cl ([…], time 14 day): 104.8 meq/L
- DBIL ([…], time 14 day): 0.008 mg/dL
- GLC ([…], time 14 day): 189.6 mg/dL
- IP ([…], time 14 day): 7.5 mg/dL
- K ([…], time 14 day): 3.8 meq/L
- LDH ([…], time 14 day): 83.4 IU/L
- Na ([…], time 14 day): 142.6 meq/L
- PL ([…], time 14 day): 151.8 mg/dL
- RALB ([…], time 14 day): 2.7 g/dL
- TBIL ([…], time 14 day): 0.04 mg/dL
- TC ([…], time 14 day): 75 mg/dL
- TG ([…], time 14 day): 118.2 mg/dL
- TP ([…], time 14 day): 5.8 g/dL
- gamma-GTP ([…], time 14 day): 1 IU/L
- A/G ([…], time 28 day): 0.8
- ALP ([…], time 28 day): 1207.4 IU/L
- ALT ([…], time 28 day): 42 IU/L
- AST ([…], time 28 day): 64.8 IU/L
- BUN ([…], time 28 day): 15.2 mg/dL
- CRE ([…], time 28 day): 0.2 mg/dL
- Ca ([…], time 28 day): 10.7 mg/dL
- Cl ([…], time 28 day): 105 meq/L
- DBIL ([…], time 28 day): 0.01 mg/dL
- GLC ([…], time 28 day): 178.8 mg/dL
- IP ([…], time 28 day): 6.4 mg/dL
- K ([…], time 28 day): 4.1 meq/L
- LDH ([…], time 28 day): 67.2 IU/L
- Na ([…], time 28 day): 143.6 meq/L
- PL ([…], time 28 day): 142.6 mg/dL
- RALB ([…], time 28 day): 2.7 g/dL
- TBIL ([…], time 28 day): 0.054 mg/dL
- TC ([…], time 28 day): 68.4 mg/dL
- TG ([…], time 28 day): 125.4 mg/dL
- TP ([…], time 28 day): 6.2 g/dL
- gamma-GTP ([…], time 28 day): 0.8 IU/L
